Measurements from paper PMC6792352, “Limited Chemical Structural Diversity Found to Modulate Thyroid Hormone Receptor in the Tox21 Chemical Library” (Environmental Health Perspectives, 2019).
Counter-ions that a name gives are not always drawn. Non-standard residues stand in square brackets, D forms with d. Residues, ends and D or L forms follow the SMILES beside them. *: point of attachment. Sta = CC(C)C[C@H](N)[C@@H](O)CC(=O)O; Isovaleryl = CC(C)CC(=O)*

Test: in vitro
Details: rat, gh3-tre-luc cells, AC50 (uM) modified / 1000

**Q.** For `COc1ccc(OC)c(OC)c1` [1,2,4-Trimethoxybenzene], which CC50 at 24 h is on record?
**A.** > 90 µM

**Q.** Which CC50 at 24 h does the source give for `CC(C)OP(=O)(CP(=O)(OC(C)C)OC(C)C)OC(C)C` [Tetraisopropyl methylenediphosphonate] here?
**A.** > 90 µM

**Q.** For `O=C(Nc1ccc(C(=O)O)c(O)c1)c1ccccc1` [Benzoylpas], which CC50 at 24 h is on record?
**A.** > 50 µM

**Q.** Which CC50 at 24 h does the source give for `CCOCn1c(-c2ccc(Cl)cc2)c(C#N)c(Br)c1C(F)(F)F` [Chlorfenapyr] here?
**A.** 2.15 µM

**Q.** With `Cc1nc(N)nc(N)n1` [6-Methyl-1,3,5-triazine-2,4-diamine] as the compound, how does the CC50 at 24 h read?
**A.** > 90 µM

**Q.** Which CC50 at 24 h does the source give for `CN1[C@@H]2CC[C@H]1CC(OC1c3ccccc3CCc3ccccc31)C2` (stereo partly shown) [Deptropine citrate] here?
**A.** 12.2 µM

**Q.** With `CN(CC(=O)N1CCOCC1)Cc1c(Cl)cccc1NC(=O)c1ccccc1` [Fominoben hydrochloride] as the compound, how does the CC50 at 24 h read?
**A.** > 50 µM

**Q.** For `CO[Si](C)(OC)OC` [Trimethoxymethylsilane], which CC50 at 24 h is on record?
**A.** > 90 µM

**Q.** With `Cc1nc(C)c(C)nc1C` [Tetramethylpyrazine] as the compound, how does the CC50 at 24 h read?
**A.** > 90 µM

**Q.** Which CC50 at 24 h does the source give for `CC(C)=CCC[C@H](C)CCO` [(S)-(-)-beta-Citronellol] here?
**A.** > 90 µM

**Q.** For `CC(C)(CCC(=O)O)C(=O)O` [2,2-Dimethylpentanedioic acid], which CC50 at 24 h is on record?
**A.** > 90 µM

**Q.** Which CC50 at 24 h does the source give for `COC(=O)N(C(=O)N1CO[C@@]2(C(=O)OC)Cc3cc(Cl)ccc3C2=N1)c1ccc(OC(F)(F)F)cc1` [Indoxacarb] here?
**A.** > 70 µM

**Q.** Which CC50 at 24 h does the source give for `O=C(O)CCCl` [3-Chloropropanoic acid] here?
**A.** > 90 µM

**Q.** With `CCOC(C)(C)C` [Ethyl T-butyl ether] as the compound, how does the CC50 at 24 h read?
**A.** > 90 µM

**Q.** With `C[N@+]12CCCC[C@@H]1CCC(=C(c1cccs1)c1cccs1)C2` (racemic) [Tiquizium bromide] as the compound, how does the CC50 at 24 h read?
**A.** > 50 µM

**Q.** For `CC(C)S` [Isopropyl mercaptan], which CC50 at 24 h is on record?
**A.** > 90 µM

**Q.** With `CN(C)CCCNCCCN(C)C` [N'-[3-(Dimethylamino)propyl]-N,N-dimethylpropane-1,3-diamine] as the compound, how does the CC50 at 24 h read?
**A.** > 90 µM

**Q.** With `CCCCCCCCSC(=O)Oc1cc(Cl)nnc1-c1ccccc1` [Pyridate] as the compound, how does the CC50 at 24 h read?
**A.** > 90 µM

**Q.** Which CC50 at 24 h does the source give for `CCCOC(=O)c1ccccc1` [Propyl benzoate] here?
**A.** > 90 µM

**Q.** Which CC50 at 24 h does the source give for `CN1CCC[C@H]1c1cccnc1` [Nicotine] here?
**A.** > 90 µM

**Q.** For `O=c1cc(CO)occ1O` [Kojic acid], which CC50 at 24 h is on record?
**A.** > 50 µM

**Q.** For `CC(=O)c1ccc[nH]1` [2-Acetylpyrrole], which CC50 at 24 h is on record?
**A.** > 90 µM

**Q.** With `CC[C@H]1CC[C@H](NCc2cc3c(cc2OC)[C@H]2C[C@H]2C(=O)N3C)[C@H](c2ccccc2)N1` [CP-728663] as the compound, how does the CC50 at 24 h read?
**A.** 35.3 µM

**Q.** With `O=[N+]([O-])c1cc(C(F)(F)F)c(Cl)c([N+](=O)[O-])c1Nc1ncc(C(F)(F)F)cc1Cl` [Fluazinam] as the compound, how does the CC50 at 24 h read?
**A.** 4.25 µM

**Q.** With `COc1cc([N+](=O)[O-])ccc1N` [2-Methoxy-4-nitroaniline] as the compound, how does the CC50 at 24 h read?
**A.** 40.9 µM

**Q.** For `N#CCC(=O)NN` [Cyacetacide], which CC50 at 24 h is on record?
**A.** > 50 µM

**Q.** With `O=C(O)CCCc1ccccc1` [Sodium 4-phenylbutyrate] as the compound, how does the CC50 at 24 h read?
**A.** > 50 µM

**Q.** For `COc1cc(-c2ccc(=O)[nH]n2)ccc1OC(F)F` [Zardaverine], which CC50 at 24 h is on record?
**A.** > 50 µM

**Q.** For `O=C(Cl)CCl` [Chloroacetyl chloride], which CC50 at 24 h is on record?
**A.** > 90 µM

**Q.** For `CN1C[C@@H]2c3ccccc3Oc3ccc(Cl)cc3[C@H]2C1` (racemic) [Asenapine], which CC50 at 24 h is on record?
**A.** 33.1 µM

**Q.** Which CC50 at 24 h does the source give for `CC1=CCCC(C)(C)C12CCC(C)O2` (stereo not shown) [Theaspirane] here?
**A.** > 90 µM

**Q.** With `O=C=Nc1ccc(Cc2ccc(N=C=O)cc2)cc1` [4,4'-Diphenylmethane diisocyanate] as the compound, how does the CC50 at 24 h read?
**A.** > 90 µM

**Q.** For `NCc1ccccc1CC(=O)N[C@@H]1C(=O)N2C(C(=O)O)=C(CSc3nnnn3CC(=O)O)CS[C@H]12` [Ceforanide], which CC50 at 24 h is on record?
**A.** > 20 µM

**Q.** Which CC50 at 24 h does the source give for `CC(C)(O)CCCC1=CCC(C=O)CC1` (stereo not shown) [4-(4-Hydroxy-4-methylpentyl)cyclohex-3-ene-1-carbaldehyde] here?
**A.** > 100 µM

**Q.** Which CC50 at 24 h does the source give for `CCCCOc1ccc(OCCCN2CCOCC2)cc1` [Pramoxine hydrochloride] here?
**A.** > 20 µM

**Q.** For `CC(Cl)(Cl)Cl` [1,1,1-Trichloroethane], which CC50 at 24 h is on record?
**A.** > 90 µM

**Q.** With `CC(O)C1CCCCC1` (stereo not shown) [1-Cyclohexylethanol] as the compound, how does the CC50 at 24 h read?
**A.** > 90 µM

**Q.** Which CC50 at 24 h does the source give for `O=C(N[C@@H]1N=C(c2ccccc2F)c2cccc3c2N(CC3)C1=O)c1cc2ccccc2[nH]1` [N-[(3R)-1-(2-Fluorophenyl)-4-oxo-3,4,6,7-tetrahydro[1,4]diazepino[6,7,1-hi]indol-3-yl]-1H-indole-2-carboxamide] here?
**A.** > 50 µM

**Q.** For `Cc1ccc(C)cc1` [p-Xylene], which CC50 at 24 h is on record?
**A.** > 90 µM

**Q.** For `O=c1oc2ccccc2c(O)c1C1CCCc2ccccc21` (stereo not shown) [Coumatetralyl], which CC50 at 24 h is on record?
**A.** > 90 µM

**Q.** With `Cl/C(=C\n1cncn1)c1ccc(Cl)cc1Cl` [Loreclezole hydrochloride] as the compound, how does the CC50 at 24 h read?
**A.** > 50 µM

**Q.** With `CN1C(=O)CN2CCc3ccccc3C2c2cc(Cl)ccc21` (stereo not shown) [Clazolam] as the compound, how does the CC50 at 24 h read?
**A.** > 50 µM

**Q.** For `CC(CN1c2ccccc2Sc2ccc(S(=O)(=O)N(C)C)cc21)N(C)C` (stereo not shown) [Fonazine], which CC50 at 24 h is on record?
**A.** 21.4 µM

**Q.** With `CC12CCC(C1)C(C)(C)C2=O` (stereo not drawn) [alpha-Fenchone] as the compound, how does the CC50 at 24 h read?
**A.** > 50 µM

**Q.** For `O=C(O[C@@H](C(=O)O)[C@@H](OC(=O)c1ccccc1)C(=O)O)c1ccccc1` [Dibenzoyl-L-tartaric acid], which CC50 at 24 h is on record?
**A.** > 90 µM

**Q.** With `Cl[C@H]1[C@H](Cl)[C@@H](Cl)[C@@H](Cl)[C@H](Cl)[C@H]1Cl` [1,2,3,4,5,6-Hexachlorocyclohexane] as the compound, how does the CC50 at 24 h read?
**A.** 45.8 µM

**Q.** Which CC50 at 24 h does the source give for `CCCCCCCCC1CO1` (stereo not shown) [1,2-Epoxydecane] here?
**A.** > 90 µM

**Q.** With `CC(C)CC(=O)N[C@H](C(=O)N[C@H](C(=O)N[C@@H](CC(C)C)[C@@H](O)CC(=O)N[C@@H](C)C(=O)N[C@@H](CC(C)C)[C@@H](O)CC(=O)O)C(C)C)C(C)C` [Pepstatin] (Isovaleryl-VV[Sta]A[Sta]-OH) as the compound, how does the CC50 at 24 h read?
**A.** > 50 µM

**Q.** Which CC50 at 24 h does the source give for `C1CCC2CCCCC2C1` (stereo not shown) [Decalin] here?
**A.** > 90 µM

**Q.** For `C=CCCCCCCCCCCCCCC` [1-Hexadecene], which CC50 at 24 h is on record?
**A.** > 20 µM

**Q.** For `COc1ccc2c3c1O[C@H]1[C@@H](O)C=C[C@H]4[C@@H](C2)N(C)CC[C@@]341` [Codeine hydrochloride], which CC50 at 24 h is on record?
**A.** > 90 µM

**Q.** Which CC50 at 24 h does the source give for `CCCCCCC1(C)CCC(=O)O1` (stereo not shown) [Dihydrojasmone lactone] here?
**A.** > 90 µM

**Q.** With `ClC(Cl)c1ccccc1` [Benzal chloride] as the compound, how does the CC50 at 24 h read?
**A.** > 90 µM

**Q.** Which CC50 at 24 h does the source give for `NCCN1CCNCC1` [1-(2-Aminoethyl)piperazine] here?
**A.** > 90 µM

**Q.** For `Nc1nc[nH]n1` [Amitrole], which CC50 at 24 h is on record?
**A.** > 90 µM

**Q.** With `C/C=C/c1ccc(OC)cc1` [Anethole] as the compound, how does the CC50 at 24 h read?
**A.** > 90 µM

**Q.** For `CC(NC(C)(C)C)C(=O)c1cccc(Cl)c1` (stereo not shown) [Bupropion hydrochloride], which CC50 at 24 h is on record?
**A.** > 50 µM

**Q.** For `O=[N+]([O-])c1cc(C(F)(F)F)ccc1Cl` [1-Chloro-2-nitro-4-(trifluoromethyl)benzene], which CC50 at 24 h is on record?
**A.** > 90 µM

**Q.** For `CN[C@H]1CC[C@@H](c2ccc(Cl)c(Cl)c2)c2ccc(S(N)(=O)=O)cc21` [UK-373911], which CC50 at 24 h is on record?
**A.** 4.55 µM

**Q.** For `Cc1ncc([N+](=O)[O-])n1CCO` [Metronidazole], which CC50 at 24 h is on record?
**A.** > 50 µM

Same assay, conditions: rat, gh3-tre-luc cells, AC50 (uM) modified / 1000, Tox21_110001=Tox21_112065; viability, 1 nM T3 present, 24 h

**Q.** With `CO[C@@H]1[C@H](O)C[C@@H](O[C@@H]2C[C@H](Oc3cc4cc5c(c(O)c4c(O)c3C)C(=O)[C@@H](O[C@H]3C[C@@H](O[C@H]4C[C@@H](O[C@H]6C[C@](C)(O)[C@@H](OC(C)=O)[C@H](C)O6)[C@H](O)[C@@H](C)O4)[C@H](O)[C@@H](C)O3)[C@H]([C@H](OC)C(=O)[C@@H](O)[C@@H](C)O)C5)O[C@H](C)[C@@H]2OC(C)=O)O[C@@H]1C` [Chromomycin A3] as the compound, how does the CC50 at 24 h read?
**A.** 0.366 µM

Same assay, conditions: rat, gh3-tre-luc cells, AC50 (uM) modified / 1000, Tox21_110001=Tox21_200907; viability, 1 nM T3 present, 24 h

**Q.** For `COC1=CC(=O)O[C@@H](/C=C/c2ccccc2)C1` [Kavain], which CC50 at 24 h is on record?
**A.** > 90 µM

Same assay, conditions: rat, gh3-tre-luc cells, AC50 (uM) modified / 1000, Tox21_110001=Tox21_200991; viability, 1 nM T3 present, 24 h

**Q.** With `N#C/C(N)=C(/N)C#N` [Diaminomaleonitrile] as the compound, how does the CC50 at 24 h read?
**A.** > 90 µM

Same assay, conditions: rat, gh3-tre-luc cells, AC50 (uM) modified / 1000, Tox21_110001=Tox21_201256; viability, 1 nM T3 present, 24 h

**Q.** Which CC50 at 24 h does the source give for `Cc1ccccc1N` [2-Methylaniline] here?
**A.** > 90 µM
